Patent US20260159533A1, “INHIBITORS OF COMPLEMENT FACTORS AND USES THEREOF” (Annexon, Inc., priority 2022, published 2026)
Where a name gives a salt, the structure may show the parent alone.

Target: T1, human C1s protein (Homo sapiens, UniProt P09871)
T1 construct: purchased R&D Systems or Complement Technologies 2060-SE or A104
T1 sequence (P09871 16-688): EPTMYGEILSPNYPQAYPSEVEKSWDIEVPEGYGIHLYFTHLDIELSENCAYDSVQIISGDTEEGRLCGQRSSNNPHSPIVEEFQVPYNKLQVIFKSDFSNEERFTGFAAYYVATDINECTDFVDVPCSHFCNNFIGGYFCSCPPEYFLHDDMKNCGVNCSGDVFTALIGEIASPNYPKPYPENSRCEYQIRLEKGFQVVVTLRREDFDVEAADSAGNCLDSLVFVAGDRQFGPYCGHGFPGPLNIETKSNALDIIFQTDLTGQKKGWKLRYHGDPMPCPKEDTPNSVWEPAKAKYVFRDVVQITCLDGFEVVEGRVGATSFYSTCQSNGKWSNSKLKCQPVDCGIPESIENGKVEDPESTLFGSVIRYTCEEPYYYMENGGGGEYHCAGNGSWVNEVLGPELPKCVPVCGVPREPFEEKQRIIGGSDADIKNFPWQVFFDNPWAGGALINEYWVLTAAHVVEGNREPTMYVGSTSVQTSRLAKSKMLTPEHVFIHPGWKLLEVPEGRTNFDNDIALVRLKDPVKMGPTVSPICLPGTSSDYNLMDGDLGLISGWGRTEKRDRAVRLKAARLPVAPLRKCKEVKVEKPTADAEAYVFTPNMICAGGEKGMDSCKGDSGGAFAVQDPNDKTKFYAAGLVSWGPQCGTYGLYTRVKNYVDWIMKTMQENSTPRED
Assay: recombinant C1s enzymatic assay (YLGR-Rh110-dPro substrate hydrolysis, fluorescence)
Type: biochemical
Conditions: recombinant human C1s 2.5 nM, substrate YLGR-Rh110-dPro 20 μM, 15 min pre-incubation, 60 min RT; read-out: rec. hC11s pIC50 (converted)
Experimental: Compound testing in the purified or recombinant C1s enzymatic assay C1s is a serine protease; its enzymatic activity is measured in vitro by the hydrolysis of the synthetic substrate YLGR-Rh110-dPro (Kerr F K, O'Brien G, Quinsey N S, Whisstock J C, Boyd S, de la Banda M G, Kaiserman D, Matthews A Y, Bird P I, Pike R N. Elucidation of the substrate specificity of the Cis protease of the classical complement pathway. J. Biol. Chem. (2005) 280, 39510-39514). The enzyme cleaves the substrate with the release of Rh110 which is highly fluorescent. Cis inhibitors prevent the hydrolysis of the substrate thus resulting in a decrease of the signal.
The recombinant C1s enzymatic assay is performed using the human C1s protein (R&D Systems, 2060-SE or Complement Technologies, A104). The assay buffer composition is: 50 mM HEPES pH 7.5 (Sigma, H3375), 150 mM NaCl (Sigma, S7653), 0.2% PEG 8000 (VWR, AA43443-22), 0.01% Pluronic F127 (Sigma, P2243). On the day of the experiment 0.1 mg/mL BSA (Sigma, B4287) is added fresh to the buffer. The test item stock solutions are serially diluted 1:3 or 1:4 or 1:5 with DMSO, 11-point curves, in a 384-well compound plate. Nafamostat concentration curve is always included in the assay plate as a reference control.
The assay plate is prepared by dispensing 0.25 μL from compound plate into a 384-well black assay plate (assay plate, Greiner Fluotrac 200, 781076, VWR 736-0140). The high controls are prepared dispensing in 0.25 μL DMSO in column 23, rows AH or AP and low controls with 0.25 μL of 0.1 μM Nafamostat. Cis solution is prepared as 2× of the 2.5 nM final assay concentration. The YLGR-Rh110-dPro substrate is prepared as 2× of the final assay concentration of 20 μM. 5 μL/well of 2× enzyme solution is dispensed and pre-incubated for 15 min with the compounds. The enzymatic reaction is the started with 5 μL/well of the 2× substrate solution. The plate is incubated for 60 min RT in the dark and fluorescence is measured (ex 485/em 535 nm) using an Envision (PerkinElmer) or an equivalent instrument.

Going from Nc1cnnc2cc(-c3cc(B(O)O)ccc3-c3ncccn3)ccc12 [Example 26, [3-(4-aminocinnolin-7-yl)-4-(pyrimidin-2-yl)phenyl]boronic acid formic acid salt] to Nc1cnnc2cc(-c3cc(B(O)O)ccc3-c3nc[nH]n3)ccc12 [Example 20, [3-(4-aminocinnolin-7-yl)-4-(1H-1,2,4-triazol-3-yl)phenyl]boronic acid], the IC50 falls from 7.24 nM to 0.776 nM (9.3-fold).

First: COc1cc(-n2cc(OC(F)F)cn2)c(-c2ccc3c(N)cnnc3c2)cc1B(O)O [Example 84, [5-(4-aminocinnolin-7-yl)-4-[4-(difluoromethoxy)pyrazol-1-yl]-2-methoxy-phenyl]boronic acid formic acid salt]
Second: COc1cc(-n2cc(C(F)(F)F)cn2)c(-c2ccc3c(N)cnnc3c2)cc1B(O)O [Example 81, 5-(4-aminocinnolin-7-yl)-2-methoxy-4-[4-(trifluoromethyl)pyrazol-1-yl]phenyl]boronic acid formic acid salt]
The IC50 of the first is 1.6-fold lower: 0.741 nM for the first, 1.17 nM for the second.

Nc1cnnc2cc(-c3cc(B(O)O)ccc3-n3cc(C(F)F)cn3)ccc12 [Example 9, [3-(4-aminocinnolin-7-yl)-4-[4-(difluoromethyl)-1H-pyrazol-1-yl]phenyl]boronic acid] and COc1cc(B(O)O)cc(-c2ccc3c(N)cnnc3c2)c1-n1cc(C(F)F)cn1 [Example 30, [3-(4-aminocinnolin-7-yl)-4-[4-(difluoromethyl)-1H-pyrazol-1-yl]-5-methoxyphenyl]boronic acid formic acid salt] are within 1.5-fold of each other in IC50: 1.74 nM for the first, 2.24 nM for the second.

Going from Nc1cnnc2cc(-c3cc(B(O)O)ccc3-c3cc[nH]n3)ccc12 [Example 7, [3-(4-aminocinnolin-7-yl)-4-(1H-pyrazol-3-yl)phenyl]boronic acid] to N#Cc1ccnn1-c1ccc(B(O)O)cc1-c1ccc2c(N)cnnc2c1 [Example 22, [3-(4-aminocinnolin-7-yl)-4-(5-cyano-1H-pyrazol-1-yl)phenyl]boronic acid], the IC50 falls from 2.63 nM to 0.851 nM (3.1-fold).

First: COc1cc(-n2cccn2)c(-c2ccc3c(N)nccc3c2)cc1B(O)O [Example 48, [5-(1-amino-6-isoquinolyl)-2-methoxy-4-pyrazol-1-yl-phenyl]boronic acid formic acid salt]
Second: COc1cc(-n2cccn2)c(-c2ccc3c(N)cnnc3c2)cc1B(O)O [Example 23, [5-(4-aminocinnolin-7-yl)-2-methoxy-4-(1H-pyrazol-1-yl)phenyl]boronic acid]
The IC50 of the first is 3.6-fold higher: 3.89 nM for the first, 1.07 nM for the second.

COc1cc(-c2ncc(C(F)F)s2)c(-c2ccc3c(N)cnnc3c2)cc1B(O)O [Example 86, [5-(4-aminocinnolin-7-yl)-4-[5-(difluoromethyl)thiazol-2-yl]-2-methoxy-phenyl]boronic acid] and COc1cc(-c2ncc(F)s2)c(-c2ccc3c(N)cnnc3c2)cc1B(O)O [Example 75, [5-(4-aminocinnolin-7-yl)-4-(5-fluorothiazol-2-yl)-2-methoxy-phenyl]boronic acid] are within 1.5-fold of each other in IC50: 0.741 nM for the first, 0.977 nM for the second.

Going from Cc1cc(-c2ncco2)c(-c2ccc3c(N)cnnc3c2)cc1B(O)O [Example 42, [5-(4-aminocinnolin-7-yl)-2-methyl-4-oxazol-2-yl-phenyl]boronic acid formic acid salt] to COc1cc(-c2ncco2)c(-c2ccc3c(N)cnnc3c2)cc1B(O)O [Example 32, [5-(4-aminocinnolin-7-yl)-2-methoxy-4-(1,3-oxazol-2-yl)phenyl]boronic acid formic acid salt], the IC50 falls from 2.04 nM to 0.832 nM (2.5-fold).

Compared with COc1cc(-n2cccn2)c(-c2ccc3c(N)nnc(C)c3c2)cc1B(O)O [Example 47, [5-(1-amino-4-methyl-phthalazin-6-yl)-2-methoxy-4-pyrazol-1-yl-phenyl]boronic acid], COc1cc(-n2nccn2)c(-c2ccc3c(N)cnnc3c2)cc1B(O)O [Example 33, [5-(4-aminocinnolin-7-yl)-2-methoxy-4-(2H-1,2,3-triazol-2-yl)phenyl]boronic acid] is 1.6-fold lower in IC50: 1.7 nM for the first, 1.07 nM for the second.

Compared with N#Cc1ccn(-c2ccc(B(O)O)cc2-c2ccc3c(N)cnnc3c2)n1 [Example 17, [3-(4-aminocinnolin-7-yl)-4-(3-cyano-1H-pyrazol-1-yl)phenyl]boronic acid], Nc1cnnc2cc(-c3cc(B(O)O)ccc3-n3cccn3)ccc12 [Example 1, [3-(4-aminocinnolin-7-yl)-4-(1H-pyrazol-1-yl)phenyl]boronic acid] is 1.9-fold lower in IC50: 6.31 nM for the first, 3.24 nM for the second.

Going from COc1cc(-n2cc(N3CCOCC3)cn2)c(-c2ccc3c(N)cnnc3c2)cc1B(O)O [Example 58, [5-(4-aminocinnolin-7-yl)-2-methoxy-4-(4-morpholinopyrazol-1-yl)phenyl]boronic acid formic acid salt] to COc1cc(-c2ncc(C)o2)c(-c2ccc3c(N)cnnc3c2)cc1B(O)O [Example 88, [5-(4-aminocinnolin-7-yl)-2-methoxy-4-(5-methyloxazol-2-yl)phenyl]boronic acid formic acid salt], the IC50 falls from 2 nM to 0.724 nM (2.8-fold).

First: CNC(=O)c1cnn(-c2ccc(B(O)O)cc2-c2ccc3c(N)cnnc3c2)c1 [Example 2, [3-(4-aminocinnolin-7-yl)-4-[4-(methylcarbamoyl)-1H-pyrazol-1-yl]phenyl]boronic acid formic acid salt]
Second: COC(=O)c1cn(-c2ccc(B(O)O)cc2-c2ccc3c(N)cnnc3c2)cn1 [Example 4, [3-(4-aminocinnolin-7-yl)-4-[4-(methoxycarbonyl)-1H-imidazol-1-yl]phenyl]boronic acid]
The IC50 of the first is 10-fold lower: 3.89 nM for the first, 38.9 nM for the second.

Compared with COc1cnc(-c2cc(OC)c(B(O)O)cc2-c2ccc3c(N)cnnc3c2)s1 [Example 68, [5-(4-aminocinnolin-7-yl)-2-methoxy-4-(5-methoxy-1,3-thiazol-2-yl)phenyl]boronic acid formic acid salt], COc1cc(-c2ncc(C(F)(F)F)s2)c(-c2ccc3c(N)cnnc3c2)cc1B(O)O [Example 83, [5-(4-aminocinnolin-7-yl)-2-methoxy-4-[5-(trifluoromethyl)thiazol-2-yl]phenyl]boronic acid] is 1.8-fold higher in IC50: 0.692 nM for the first, 1.23 nM for the second.

CC1COc2cc(-n3cccn3)c(-c3ccc4c(N)cnnc4c3)cc2B(O)O1 (single isomer, unassigned; enantiomer 1) [Example 72, 7-(1-hydroxy-3-methyl-7-pyrazol-1-yl-3,4-dihydro-2,5,1-benzodioxaborepin-8-yl)cinnolin-4-amine enantiomer 1] and CC1(C)COc2cc(-n3cccn3)c(-c3ccc4c(N)cnnc4c3)cc2B(O)O1 [Example 77, 7-(1-hydroxy-3,3-dimethyl-7-pyrazol-1-yl-4H-2,5,1-benzodioxaborepin-8-yl)cinnolin-4-amine] are within 1.5-fold of each other in IC50: 1.7 nM for the first, 1.58 nM for the second.

Compared with COc1cc(-c2ncc[nH]2)c(-c2ccc3c(N)cnnc3c2)cc1B(O)O [Example 46, [5-(4-aminocinnolin-7-yl)-4-(1H-imidazol-2-yl)-2-methoxy-phenyl]boronic acid], COc1cc(-c2ncns2)c(-c2ccc3c(N)cnnc3c2)cc1B(O)O [Example 91, [5-(4-aminocinnolin-7-yl)-2-methoxy-4-(1,2,4-thiadiazol-5-yl)phenyl]boronic acid formic acid salt] is 8.3-fold lower in IC50: 3.89 nM for the first, 0.468 nM for the second.

For Cc1cc(-c2nccs2)c(-c2ccc3c(N)cnnc3c2)cc1B(O)O [Example 53, [5-(4-aminocinnolin-7-yl)-2-methyl-4-thiazol-2-yl-phenyl]boronic acid formic acid salt], the IC50 was 9.55 nM.
